Measured values as given in PMC11206519, “Multi-Endpoint Toxicological Assessment of Chrysin Loaded Oil-in-Water Emulsion System in Different Biological Models” (Nanomaterials, 2024).
Read-outs that look alike come from different tables or passages of the source.

Columns and labels:
[1] = test system: D. melanogaster trans-heterozygous mwh+/+flr3 larvae of the HB cross; experiment: SMART wing spot test, anti-mutagenicity, HB cross
Description: The somatic mutation and recombination test, or the wing spot test, using D. melanogaster was employed as an in vivo system to assess the mutagenicity and anti-mutagenicity of chrysin-ES. Two different crosses were conducted: (i) a standard cross (ST) and (ii) a high bioactivation cross (HB). The standard cross larvae were obtained from virgin female of flr3/TM3, Ser crossed with males of mwh/mwh, while the HB cross larvae expressing cytochrome P450 enzymes involved in xenobiotic biotransformation were obtained from virgin females of ORR/ORR; flr^3/In (3LR) TM3, ri p^psep l (3)89Aa bx^34e e Bd^s crossed with males of mwh/mwh. The flies were cultured at a constant temperature of 25 ± 1 °C and 60–70% RH at photoperiod 12:12 (light/dark). To evaluate the mutagenicity of chrysin and chrysin-ES, a hundred larva F1 progenies derived from the above crossing were fed with instant Drosophila medium (Formula 4-24®), Carolina, Burlington, NC, USA) containing chrysin or chrysin-ES (20–120 µg/mL). DI was used as a negative control, while 20 mM urethane (URE) was used as a positive control. The larvae were reared on each medium until pupation at 25 °C. After that, forty wings of surviving flies in each group were collected for mutant analysis. The mutant spots on the wings, including small single spots, large single spots, and twin spots, were counted. The statistical significance was calculated as previously described by Frei and Würgler.
Furthermore, the anti-mutagenicity of the samples was performed by a similar procedure as mentioned above.

[2] = cited from earlier work
S. typhimurium TA100 = experiment: Ames test, anti-mutagenicity
Description: Furthermore, the anti-mutagenicity of the samples was performed by a similar procedure, as mentioned above. […] The percentage inhibition (decrease revertant colony number) was calculated as in the following equation:Anti-mutagenicity (%) = [1 − (b/a)] × 100 • a = revertant colony number induced via standard mutagen (positive control). • b = revertant colony number induced by standard mutagen in the presence of each sample treatment.
The percent of inhibition between 0–20%, 21–40%, 41–60%, and higher than 60% indicate negligible, weak, moderate, and strong anti-mutagenicity, respectively.

[3] = AF-2 0.1 µg/plate, −S9, 5.7 µM/plate
[4] = AF-2 0.1 µg/plate, −S9, 11.4 µM/plate
[5] = AF-2 0.1 µg/plate, −S9, 22.8 µM/plate
[6] = IQ 0.05 µg/plate, +S9, 0.35 µM/plate
[7] = IQ 0.05 µg/plate, +S9, 0.70 µM/plate
[8] = IQ 0.05 µg/plate, +S9, 1.40 µM/plate
[9] = IQ 0.05 µg/plate, +S9, 2.85 µM/plate
[10] = IQ 0.05 µg/plate, +S9, 5.70 µM/plate

O=c1cc(-c2ccccc2)oc2cc(O)cc(O)c12 [Chrysin, 5,7-dihydroxyflavone]
Inhibition (%) ([1]; NMU + 80 μg/mL): 81%
Inhibitory Classification ([1]; NMU + 80 μg/mL): Strong
Mutant spots per individual (number of spots), Large Single ([1]; NMU + 80 μg/mL): 0.04 (1)
Mutant spots per individual (number of spots), Small Single ([1]; NMU + 80 μg/mL): 0.32 (9)
Mutant spots per individual (number of spots), Total ([1]; NMU + 80 μg/mL): 0.36 (10)
Mutant spots per individual (number of spots), Twin ([1]; NMU + 80 μg/mL): 0 (0)
Inhibition (%) ([1]; NMU + 120 μg/mL): 95%
Inhibitory Classification ([1]; NMU + 120 μg/mL): Strong
Mutant spots per individual (number of spots), Large Single ([1]; NMU + 120 μg/mL): 0.05 (2)
Mutant spots per individual (number of spots), Small Single ([1]; NMU + 120 μg/mL): 0.05 (2)
Mutant spots per individual (number of spots), Total ([1]; NMU + 120 μg/mL): 0.10 (4)
Mutant spots per individual (number of spots), Twin ([1]; NMU + 120 μg/mL): 0 (0)
Inhibition (%) ([1]; URE 20 mM + 20 μg/mL): 84%
Inhibitory Classification ([1]; URE 20 mM + 20 μg/mL): Strong
Mutant spots per individual (number of spots), Large Single ([1]; URE 20 mM + 20 μg/mL): 0.15 (6)
Mutant spots per individual (number of spots), Small Single ([1]; URE 20 mM + 20 μg/mL): 1.55 (62)
Mutant spots per individual (number of spots), Total ([1]; URE 20 mM + 20 μg/mL): 1.70 (68)
Mutant spots per individual (number of spots), Twin ([1]; URE 20 mM + 20 μg/mL): 0 (0)
Inhibition (%) ([1]; URE 20 mM + 40 μg/mL): 84%
Inhibitory Classification ([1]; URE 20 mM + 40 μg/mL): Strong
Mutant spots per individual (number of spots), Large Single ([1]; URE 20 mM + 40 μg/mL): 0 (0)
Mutant spots per individual (number of spots), Small Single ([1]; URE 20 mM + 40 μg/mL): 1.75 (70)
Mutant spots per individual (number of spots), Total ([1]; URE 20 mM + 40 μg/mL): 1.75 (70)
Mutant spots per individual (number of spots), Twin ([1]; URE 20 mM + 40 μg/mL): 0 (0)
Inhibition (%) ([1]; URE 20 mM + 80 μg/mL): 92%
Inhibitory Classification ([1]; URE 20 mM + 80 μg/mL): Strong
Mutant spots per individual (number of spots), Large Single ([1]; URE 20 mM + 80 μg/mL): 0.03 (1)
Mutant spots per individual (number of spots), Small Single ([1]; URE 20 mM + 80 μg/mL): 0.88 (35)
Mutant spots per individual (number of spots), Total ([1]; URE 20 mM + 80 μg/mL): 0.90 (36)
Mutant spots per individual (number of spots), Twin ([1]; URE 20 mM + 80 μg/mL): 0 (0)
Inhibition (%) ([1]; URE 20 mM + 120 μg/mL): 89%
Inhibitory Classification ([1]; URE 20 mM + 120 μg/mL): Strong
Mutant spots per individual (number of spots), Large Single ([1]; URE 20 mM + 120 μg/mL): 0.08 (3)
Mutant spots per individual (number of spots), Small Single ([1]; URE 20 mM + 120 μg/mL): 1.08 (43)
Mutant spots per individual (number of spots), Total ([1]; URE 20 mM + 120 μg/mL): 1.18 (47)
Mutant spots per individual (number of spots), Twin ([1]; URE 20 mM + 120 μg/mL): 0.03 (1)
chrysin uptake eliminated in the feces [2]: 98%
Inhibitory Classification (S. typhimurium TA100; [3]): Mild
Number of Revertant Colonies (S. typhimurium TA100; [3]): 252 ± 14
Inhibitory Classification (S. typhimurium TA100; [4]): Mild
Number of Revertant Colonies (S. typhimurium TA100; [4]): 250 ± 6
Inhibitory Classification (S. typhimurium TA100; [5]): Mild
Number of Revertant Colonies (S. typhimurium TA100; [5]): 235 ± 20
Inhibitory Classification (S. typhimurium TA100; [6]): Moderate
Number of Revertant Colonies (S. typhimurium TA100; [6]): 328 ± 32
Inhibitory Classification (S. typhimurium TA100; [7]): Strong
Number of Revertant Colonies (S. typhimurium TA100; [7]): 243 ± 16
Inhibitory Classification (S. typhimurium TA100; [8]): Strong
Number of Revertant Colonies (S. typhimurium TA100; [8]): 161 ± 10
Inhibitory Classification (S. typhimurium TA100; [9]): Strong
Number of Revertant Colonies (S. typhimurium TA100; [9]): 106 ± 15
Inhibitory Classification (S. typhimurium TA100; [10]): Strong
Number of Revertant Colonies (S. typhimurium TA100; [10]): 47 ± 10
inhibition at […] (S. typhimurium TA100; Salmonella enterica, TYPHIMURIUM, read-out: % mutagenic inhibition, AF-2 0.1 µg/plate, −S9, 5.7 µM/plate): 32%
inhibition at 11.4 µM (S. typhimurium TA100; Salmonella enterica, TYPHIMURIUM, read-out: % mutagenic inhibition, AF-2 0.1 µg/plate, −S9, 11.4 µM/plate): 32%
inhibition at 22.8 µM (S. typhimurium TA100; Salmonella enterica, TYPHIMURIUM, read-out: % mutagenic inhibition, AF-2 0.1 µg/plate, −S9, 22.8 µM/plate): 37%
inhibition at 0.35 µM (S. typhimurium TA100; Salmonella enterica, TYPHIMURIUM, read-out: % mutagenic inhibition, IQ 0.05 µg/plate, +S9, 0.35 µM/plate): 56%
inhibition at 0.7 µM (S. typhimurium TA100; Salmonella enterica, TYPHIMURIUM, read-out: % mutagenic inhibition, IQ 0.05 µg/plate, +S9, 0.70 µM/plate): 67%
inhibition at 1.4 µM (S. typhimurium TA100; Salmonella enterica, TYPHIMURIUM, read-out: % mutagenic inhibition, IQ 0.05 µg/plate, +S9, 1.40 µM/plate): 78%
inhibition at 2.85 µM (S. typhimurium TA100; Salmonella enterica, TYPHIMURIUM, read-out: % mutagenic inhibition, IQ 0.05 µg/plate, +S9, 2.85 µM/plate): 86%
inhibition at […] (S. typhimurium TA100; Salmonella enterica, TYPHIMURIUM, read-out: % mutagenic inhibition, IQ 0.05 µg/plate, +S9, 5.70 µM/plate): 94%
